Assay results published in ChEMBL document CHEMBL1158581, “Synthesis and evaluation of new N6-substituted adenosine-5'-N-methylcarboxamides as A3 adenosine receptor agonists” (Bioorg Med Chem, 2010).
The source made the active and inactive calls. No cut-off for these calls is given here.

Experiments:
Adenosine receptor A3 [1] = target: T1, Adenosine receptor A3 (Homo sapiens, UniProt P0DMS8); assay: Displacement of [125I]ABA from human recombinant adenosine A3 receptor by rapid filtration technique
T1 sequence (P0DMS8 whole entry): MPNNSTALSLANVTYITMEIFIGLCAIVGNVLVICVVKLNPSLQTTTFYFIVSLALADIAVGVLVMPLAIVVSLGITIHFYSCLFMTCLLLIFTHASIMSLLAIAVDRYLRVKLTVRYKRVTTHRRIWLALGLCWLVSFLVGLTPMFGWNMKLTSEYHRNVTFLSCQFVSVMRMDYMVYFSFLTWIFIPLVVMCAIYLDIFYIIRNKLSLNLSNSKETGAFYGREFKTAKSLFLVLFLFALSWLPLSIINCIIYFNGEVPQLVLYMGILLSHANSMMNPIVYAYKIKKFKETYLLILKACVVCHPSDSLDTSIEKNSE

[2] = target: Adenosine receptors; A1 & A3 (Homo sapiens) (UniProt P30542+P0DMS8); assay: Selectivity ratio of Ki for human recombinant adenosine A1 receptor to Ki for human recombinant adenosine A3 receptor
Adenosine receptor A2a [3] = target: T2, Adenosine receptor A2a (Homo sapiens, UniProt P29274); assay: Displacement of [3H]ZM241385 from human recombinant adenosine A2A receptor by rapid filtration technique
Adenosine receptor A1 = target: T3, Adenosine receptor A1 (Homo sapiens, UniProt P30542); assay: Displacement of [125I]ABA from human recombinant adenosine A1 receptor by rapid filtration technique
T3 sequence (P30542 whole entry): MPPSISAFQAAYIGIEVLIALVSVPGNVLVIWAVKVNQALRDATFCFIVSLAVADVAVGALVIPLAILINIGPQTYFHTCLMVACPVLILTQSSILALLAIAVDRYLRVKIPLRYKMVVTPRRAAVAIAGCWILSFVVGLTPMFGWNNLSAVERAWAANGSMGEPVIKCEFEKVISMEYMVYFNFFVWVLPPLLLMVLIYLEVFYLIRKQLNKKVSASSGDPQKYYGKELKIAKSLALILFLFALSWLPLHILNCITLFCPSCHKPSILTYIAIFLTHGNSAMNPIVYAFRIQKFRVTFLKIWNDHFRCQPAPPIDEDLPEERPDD

H9c2 [4] = assay: Cardioprotective effect against hypoxic simulated ischemia in rat H9c2 cells assessed as reduction in cell death at 100 nM after 12 hrs by propidium iodide staining-based inverted microscopy; format: functional; conditions: for inhibition at 0.1 µM: H9c2, 12 h
H9c2 [5] = assay: Cardioprotective effect against hypoxic simulated ischemia in rat H9c2 cells assessed as reduction in cell death at 10 nM after 12 hrs by propidium iodide staining-based inverted microscopy; format: functional
H9c2 [6] = assay: Cardioprotective effect against hypoxic simulated ischemia in rat H9c2 cells assessed as reduction in cell death at 100 nM after 12 hrs by propidium iodide staining-based inverted microscopy in presence of adenosine A3 receptor antagonist MRS-1191; format: functional
Adenosine receptor A2a [7] = target: T2, Adenosine receptor A2a; assay: Displacement of [3H]ZM241385 from human recombinant adenosine A2A receptor at 10 uM by rapid filtration technique
[8] = Selectivity ratio of Ki for adenosine A1 receptor to Ki for adenosine A3 receptor
Adenosine receptor A3 [9] = target: T1, Adenosine receptor A3; assay: Binding affinity to adenosine A3 receptor

T2 sequence (P29274 whole entry): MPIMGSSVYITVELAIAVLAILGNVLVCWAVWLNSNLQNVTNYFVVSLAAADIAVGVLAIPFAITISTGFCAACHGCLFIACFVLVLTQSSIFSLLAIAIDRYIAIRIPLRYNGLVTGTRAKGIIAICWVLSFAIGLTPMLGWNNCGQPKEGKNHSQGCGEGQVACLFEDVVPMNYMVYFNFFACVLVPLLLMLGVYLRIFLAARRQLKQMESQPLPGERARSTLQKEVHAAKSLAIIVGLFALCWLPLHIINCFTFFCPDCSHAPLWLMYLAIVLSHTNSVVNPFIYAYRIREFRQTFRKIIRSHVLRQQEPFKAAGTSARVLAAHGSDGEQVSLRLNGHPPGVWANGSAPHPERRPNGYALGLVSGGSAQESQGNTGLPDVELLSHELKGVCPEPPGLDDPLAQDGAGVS

Compound: CNC(=O)[C@H]1O[C@@H](n2cnc3c(NC4CC(C)(C)N([O])C(C)(C)C4)ncnc32)[C@H](O)[C@@H]1O
- Ki (Adenosine receptor A3 [1]): 4160 nM
- Ratio Ki [2]: 0.45
- Ki (Adenosine receptor A2a [3]): > 10000 nM
- Ki (Adenosine receptor A1): 1890 nM

Compound: CNC(=O)[C@H]1O[C@@H](n2cnc3c(NCc4ccc5c(c4)C(C)(C)N([O])C5(C)C)ncnc32)[C@H](O)[C@@H]1O
- Ki (Adenosine receptor A3 [1]): 320 nM
- Ratio Ki [2]: 4
- Ki (Adenosine receptor A2a [3]): > 10000 nM
- Ki (Adenosine receptor A1): 1290 nM

Compound: CNC(=O)[C@H]1O[C@@H](n2cnc3c(NCc4ccc(CNC(=O)c5cc(C(C)(C)C)cc(C(C)(C)C)c5)cc4)ncnc32)[C@H](O)[C@@H]1O
- Ki (Adenosine receptor A3 [1]): 9.02 nM
- inhibition at 0.1 µM (H9c2 [4]): 68.3%
- Ratio Ki [2]: 14
- inhibition (H9c2 [5]): inactive
- inhibition (H9c2 [6]): inactive
- Ki (Adenosine receptor A2a [3]): > 10000 nM
- Ki (Adenosine receptor A1): 128 nM

Compound: CNC(=O)[C@H]1O[C@@H](n2cnc3c(NCc4ccc(CNC(=O)c5cc(C(C)(C)C)c(O)c(C(C)(C)C)c5)cc4)ncnc32)[C@H](O)[C@@H]1O
- Ki (Adenosine receptor A3 [1]): 5.63 nM
- inhibition (H9c2 [4]): Active
- Ratio Ki [2]: 19
- inhibition (H9c2 [5]): inactive
- inhibition (H9c2 [6]): inactive
- Ki (Adenosine receptor A2a [3]): > 10000 nM
- Ki (Adenosine receptor A1): 105 nM

Compound: CNC(=O)[C@H]1O[C@@H](n2cnc3c(NCCc4cc(C(C)(C)C)c(O)c(C(C)(C)C)c4)ncnc32)[C@H](O)[C@@H]1O
- Ki (Adenosine receptor A3 [1]): 9 nM
- Ratio Ki [2]: 69
- Ki (Adenosine receptor A2a [3]): > 10000 nM
- Ki (Adenosine receptor A1): 620 nM

Compound: CC(C)(C)c1cc(CCNc2ncnc3c2ncn3[C@@H]2O[C@H](CO)[C@@H](O)[C@H]2O)cc(C(C)(C)C)c1O
- Ki (Adenosine receptor A3 [1]): 30 nM
- Ratio Ki [2]: 5
- inhibition (Adenosine receptor A2a [7]): 20%
- Ki (Adenosine receptor A1): 150 nM

Compound: CC1(C)CC(NC2NC=Nc3c2ncn3[C@@H]2O[C@H](CO)[C@@H](O)[C@H]2O)CC(C)(C)N1[O] (stereo partly drawn)
- Ki (Adenosine receptor A3 [1]): 8560 nM
- Ratio Ki [2]: 0.0058
- Ki (Adenosine receptor A2a [3]): > 10000 nM
- Ki (Adenosine receptor A1): 50 nM

Compound: CNC(=O)[C@H]1O[C@@H](n2cnc3c(NCc4ccc(CNC(=O)c5cc(OC)c(OC)c(OC)c5)cc4)ncnc32)[C@H](O)[C@@H]1O
- Ki (Adenosine receptor A3 [1]): 5.04 nM
- inhibition (H9c2 [4]): Active
- Ratio Ki [2]: 15
- inhibition (H9c2 [5]): inactive
- inhibition (H9c2 [6]): inactive
- Ki (Adenosine receptor A2a [3]): > 10000 nM
- Ki (Adenosine receptor A1): 76.8 nM

Compound: CNC(=O)[C@H]1O[C@@H](n2cnc3c(Nc4ccc5c(c4)C(C)(C)NC5(C)C)ncnc32)[C@H](O)[C@@H]1O
- Ki (Adenosine receptor A3 [1]): 70 nM
- Ratio Ki [2]: 16
- Ki (Adenosine receptor A2a [3]): > 10000 nM
- Ki (Adenosine receptor A1): 1170 nM

Compound: CNC(=O)[C@H]1O[C@@H](n2cnc3c(Nc4ccc(CCNC(=O)c5cc(C(C)(C)C)c(O)c(C(C)(C)C)c5)cc4)ncnc32)[C@H](O)[C@@H]1O
- Ki (Adenosine receptor A3 [1]): 45 nM
- Ratio Ki [2]: 5.4
- Ki (Adenosine receptor A2a [3]): > 10000 nM
- Ki (Adenosine receptor A1): 243 nM

Compound: CNC(=O)[C@H]1O[C@@H](n2cnc3c(NC4CC(C)(C)NC(C)(C)C4)ncnc32)[C@H](O)[C@@H]1O
- Ki (Adenosine receptor A3 [1]): 2480 nM
- Ratio Ki [2]: 0.39
- Ki (Adenosine receptor A2a [3]): > 10000 nM
- Ki (Adenosine receptor A1): 960 nM

Compound: CNC(=O)[C@H]1O[C@@H](n2cnc3c(NCC4CC(C)(C)N([O])C4(C)C)ncnc32)[C@H](O)[C@@H]1O (stereo partly drawn)
- Ki (Adenosine receptor A3 [1]): 1020 nM
- Ratio Ki [2]: 0.56
- Ki (Adenosine receptor A2a [3]): > 10000 nM
- Ki (Adenosine receptor A1): 570 nM

Compound: CC1(C)CC(CNc2ncnc3c2ncn3[C@@H]2O[C@H](CO)[C@@H](O)[C@H]2O)C(C)(C)N1[O] (stereo partly drawn)
- Ratio Ki [8]: 400
- Ratio Ki [2]: 0.0024
- Ki (Adenosine receptor A3 [9]): 50 nM
- Ki (Adenosine receptor A2a [3]): > 10000 nM

Compound: CNC(=O)[C@H]1O[C@@H](n2cnc3c(NCc4cccc(I)c4)ncnc32)[C@H](O)[C@@H]1O [IB-MECA]
- inhibition (H9c2 [4]): Active
- inhibition at 0.1 µM (H9c2 [4]): 54.1%
- inhibition (H9c2 [5]): inactive
- inhibition (H9c2 [6]): inactive

Compound: CNC(=O)[C@H]1O[C@@H](n2cnc3c(NCc4ccc(NC(=O)CCC(=O)NCCc5cc(C(C)(C)C)c(O)c(C(C)(C)C)c5)cc4)ncnc32)[C@H](O)[C@@H]1O
- Ki (Adenosine receptor A3 [1]): 2.22 nM
- Ratio Ki [2]: 19
- Ki (Adenosine receptor A2a [3]): > 10000 nM
- Ki (Adenosine receptor A1): 42.1 nM

Compound: CC1(C)CC(NC2NC=Nc3c2ncn3[C@@H]2O[C@H](CO)[C@@H](O)[C@H]2O)CC(C)(C)N1 (stereo partly drawn)
- Ratio Ki [2]: 0.063

Compound: CNC(=O)[C@H]1O[C@@H](n2cnc3c(Nc4ccc(CCNC(=O)c5cc(OC)c(OC)c(OC)c5)cc4)ncnc32)[C@H](O)[C@@H]1O
- Ki (Adenosine receptor A3 [1]): 4.26 nM
- inhibition (H9c2 [4]): Active
- Ratio Ki [2]: 6.2
- inhibition (H9c2 [5]): inactive
- inhibition (H9c2 [6]): inactive
- inhibition (Adenosine receptor A2a [7]): 27%
- Ki (Adenosine receptor A1): 26.2 nM

Compound: CNC(=O)[C@H]1O[C@@H](n2cnc3c(Nc4ccc5c(c4)C(C)(C)N([O])C5(C)C)ncnc32)[C@H](O)[C@@H]1O
- Ki (Adenosine receptor A3 [1]): 530 nM
- Ratio Ki [2]: 1.5
- Ki (Adenosine receptor A2a [3]): > 10000 nM
- Ki (Adenosine receptor A1): 800 nM

Compound: CNC(=O)[C@H]1O[C@@H](n2cnc3c(Nc4ccc(CCNC(=O)c5ccc6c(c5)C(C)(C)N([O])C6(C)C)cc4)ncnc32)[C@H](O)[C@@H]1O
- Ki (Adenosine receptor A3 [1]): 25 nM
- Ratio Ki [2]: 2.1
- Ki (Adenosine receptor A2a [3]): > 10000 nM
- Ki (Adenosine receptor A1): 53.1 nM

Compound: CC1(C)c2ccc(C(=O)NCCc3ccc(Nc4ncnc5c4ncn5[C@@H]4O[C@H](CO)[C@@H](O)[C@H]4O)cc3)cc2C(C)(C)N1[O]
- Ratio Ki [8]: 3
- Ki (Adenosine receptor A3 [9]): 7 nM

Compound: CC1(C)c2ccc(CNC3NC=Nc4c3ncn4[C@@H]3O[C@H](CO)[C@@H](O)[C@H]3O)cc2C(C)(C)N1[O] (stereo partly drawn)
- Ki (Adenosine receptor A3 [1]): 280 nM
- Ratio Ki [2]: 4.1
- Ki (Adenosine receptor A2a [3]): > 10000 nM
- Ki (Adenosine receptor A1): 1140 nM

Compound: CC1(C)c2ccc(NC3NC=Nc4c3ncn4[C@@H]3O[C@H](CO)[C@@H](O)[C@H]3O)cc2C(C)(C)N1[O] (stereo partly drawn)
- Ki (Adenosine receptor A2a [3]): > 10000 nM

Compound: CNC(=O)[C@H]1O[C@@H](n2cnc3c(Nc4ccc(CCNC(=O)c5cc(C(C)(C)C)cc(C(C)(C)C)c5)cc4)ncnc32)[C@H](O)[C@@H]1O
- Ki (Adenosine receptor A3 [1]): 2.25 nM
- inhibition (H9c2 [4]): Active
- Ratio Ki [2]: 109
- inhibition (H9c2 [5]): inactive
- inhibition (H9c2 [6]): inactive
- Ki (Adenosine receptor A2a [3]): > 10000 nM
- Ki (Adenosine receptor A1): 245 nM

Compound: CC1(C)NC(C)(C)c2cc(Nc3ncnc4c3ncn4[C@@H]3O[C@H](CO)[C@@H](O)[C@H]3O)ccc21
- Ki (Adenosine receptor A3 [1]): 280 nM
- Ratio Ki [2]: 1
- Ki (Adenosine receptor A2a [3]): > 10000 nM
- Ki (Adenosine receptor A1): 290 nM
